Data on 39 compounds can be found in ChEMBL document CHEMBL3875210, “Synthesis, functionalization and biological activity of arylated derivatives of (+)-estrone” (Bioorg Med Chem, 2017).

In experiment [1] the target is Pancreatic triacylglycerol lipase (Sus scrofa) (UniProt P00591). Put plainly: Inhibition of porcine pancreatic lipase using p-nitrophenylbutyrate as substrate preincubated for 10 mins followed by substrate addition measured after 20 mins.
The subject of experiment [2] is pancreatic lipase (Sus scrofa). The experiment is described as follows: Inhibition of pancreatic lipase (unknown origin) at 100 uM using p-nitrophenylbutyrate as substrate preincubated for 10 mins followed by substrate addition measured after 20 mins.
Experiment [3] is described as follows: Inhibition of pancreatic lipase (unknown origin) assessed as decrease in release of fatty acid from triolein incubated for 30 mins by phenolphthalein-baed titrimetric method. Also noted: species or system Homo sapiens.

The term IC50 denotes the point on the concentration scale where inhibition reaches its midpoint. In turn, `C[C@]12CC[C@@H]3c4cc(-c5ccc(C(F)(F)F)cc5)c(O)cc4CC[C@H]3[C@@H]1CCC2=O` returned a half-maximal inhibitory concentration (IC50) in experiment [1] of 16.3 µM.
Same read-out and setting: as for `C[C@]12CC[C@@H]3c4cc(-c5cccc(F)c5)c(O)c(-c5cccc(F)c5)c4CC[C@H]3[C@@H]1CCC2=O`, the figure is 7.19 µM.
As usually defined, the inhibition is the change of the read-out against control, counted positive when it falls. A high value points to a strong effect. Compound `C[C@]12CC[C@@H]3c4ccc(O)c(-c5ccc(Cl)cc5)c4CC[C@H]3[C@@H]1CCC2=O` registered an inhibition in experiment [2] of 45%.
The same measure, in the same setting: with `COc1ccc(-c2c(O)ccc3c2CC[C@@H]2[C@@H]3CC[C@]3(C)C(=O)CC[C@@H]23)c(OC)c1OC` the figure was 43%.
In turn, `COc1ccc(-c2cc3c(cc2O)CC[C@@H]2[C@@H]3CC[C@]3(C)C(=O)CC[C@@H]23)cc1` returned a 50% inhibitory concentration (IC50) in experiment [1] of 12.3 µM.
The same measure, in the same setting: as for `C[C@]12CC[C@@H]3c4cc(-c5cccc(F)c5)c(O)cc4CC[C@H]3[C@@H]1CCC2=O`, the figure is 16.3 µM; as for `COc1ccc(-c2cc3c(c(-c4ccc(OC)cc4)c2O)CC[C@@H]2[C@@H]3CC[C@]3(C)C(=O)CC[C@@H]23)cc1`, 5.28 µM.
Still for that read-out and setting: as for `C[C@]12CC[C@@H]3c4cc(-c5ccccc5F)c5oc6ccccc6c5c4CC[C@H]3[C@@H]1CCC2=O`, the figure is 0.93 µM.
Take `CCc1ccc(-c2cc3c(c(-c4ccc(CC)cc4)c2O)CC[C@@H]2[C@@H]3CC[C@]3(C)C(=O)CC[C@@H]23)cc1`: the inhibition in experiment [2] stood at 41%.
In experiment [1], `C[C@]12CC[C@@H]3c4ccc5oc(=O)c6ccccc6c5c4CC[C@H]3[C@@H]1CCC2=O` yielded a concentration for half-maximal inhibition (IC50) of 1.36 µM.
Still for that read-out and setting: as for `CC(C)(C)c1ccc(-c2c(O)ccc3c2CC[C@@H]2[C@@H]3CC[C@]3(C)C(=O)CC[C@@H]23)cc1`, the figure is 1.78 µM.
For `Cc1cc2c(c(O)c1-c1c(C)cc3c(c1O)C(=O)c1c(O)cc(O)cc1C3=O)C(=O)c1c(O)cccc1C2=O` [CASSIAMIN A], in experiment [3] (read-out: IC50), the concentration for half-maximal inhibition (IC50) is 41.8 µM.
Compound `Cc1cc(C)cc(-c2cc3c(c(-c4cc(C)cc(C)c4)c2O)CC[C@@H]2[C@@H]3CC[C@]3(C)C(=O)CC[C@@H]23)c1` yielded an IC50 in experiment [1] of 24.1 µM.
Still for that read-out and setting: with `CCc1ccc(-c2c(O)ccc3c2CC[C@@H]2[C@@H]3CC[C@]3(C)C(=O)CC[C@@H]23)cc1` the figure was 13.6 µM; with `C[C@]12CC[C@@H]3c4cc(-c5ccc(OC(F)(F)F)cc5)c(O)cc4CC[C@H]3[C@@H]1CCC2=O`, 2.54 µM; with `C[C@]12CC[C@@H]3c4ccc(O)c(-c5ccc(OC(F)(F)F)cc5)c4CC[C@H]3[C@@H]1CCC2=O`, 6.42 µM.
On the same count and under the same terms, as for `C[C@]12CC[C@@H]3c4cc(-c5ccc(Cl)cc5)c(O)c(-c5ccc(Cl)cc5)c4CC[C@H]3[C@@H]1CCC2=O`, the figure is 1.75 µM.
Compound `Cc1ccc(-c2c(O)ccc3c2CC[C@@H]2[C@@H]3CC[C@]3(C)C(=O)CC[C@@H]23)cc1` displayed an inhibition in experiment [2] of 38%.
`C[C@]12CC[C@@H]3c4ccc(O)c(-c5ccccc5)c4CC[C@H]3[C@@H]1CCC2=O` came in with a half-maximal inhibitory concentration (IC50) in experiment [1] of 1.54 µM.
In experiment [2], `C[C@]12CC[C@@H]3c4ccc5oc6ccccc6c5c4CC[C@H]3[C@@H]1CCC2=O` showed an inhibition of 32%.
The same measure, in the same setting: as for `Cc1ccc(-c2cc3c(c(-c4ccc(C)cc4)c2O)CC[C@@H]2[C@@H]3CC[C@]3(C)C(=O)CC[C@@H]23)cc1`, the figure is 39%.
As to `Cc1ccc(-c2cc3c(cc2O)CC[C@@H]2[C@@H]3CC[C@]3(C)C(=O)CC[C@@H]23)cc1`, it took 1.21 µM to reach half-maximal inhibition in experiment [1] (IC50).
As to `C[C@]12CC[C@@H]3c4cc(-c5ccc(C(F)(F)F)cc5)c(O)c(-c5ccc(C(F)(F)F)cc5)c4CC[C@H]3[C@@H]1CCC2=O`, the inhibition in experiment [2] is 42%.
`C[C@]12CC[C@@H]3c4cc(-c5ccccc5)c(O)c(-c5ccccc5)c4CC[C@H]3[C@@H]1CCC2=O` gave an IC50 in experiment [1] of 25.6 µM.
In experiment [2], `COc1ccc(-c2c(O)ccc3c2CC[C@@H]2[C@@H]3CC[C@]3(C)C(=O)CC[C@@H]23)cc1` had an inhibition of 42%.
Still for that read-out and setting: as for `COc1ccc(-c2cc3c(c(-c4ccc(OC)c(OC)c4OC)c2O)CC[C@@H]2[C@@H]3CC[C@]3(C)C(=O)CC[C@@H]23)c(OC)c1OC`, the figure is 37%.
With `C[C@]12CC[C@@H]3c4ccc(O)c(-c5cccc(F)c5)c4CC[C@H]3[C@@H]1CCC2=O`, it took 1.34 µM to reach half-maximal inhibition in experiment [1] (IC50).
In experiment [1], `C[C@]12CC[C@@H]3c4ccc(O)c(-c5ccc(C(F)(F)F)cc5)c4CC[C@H]3[C@@H]1CCC2=O` gave a 50% inhibitory concentration (IC50) of 0.82 µM.
Take `C[C@H]1[C@H](C)CC[C@]2(C(=O)O)CC[C@]3(C)C(=CC[C@@H]4[C@@]5(C)CC[C@H](O)C(C)(C)[C@@H]5CC[C@]43C)[C@H]12` [URSOLIC ACID]: the 50% inhibitory concentration (IC50) in experiment [3] (read-out: IC50) is 15.8 µM.
On the same count and under the same terms, as for `Oc1cc(O)c2c(c1)O[C@H](c1ccc(O)c(O)c1)[C@H](O)C2` [(-)-EPICATECHIN], the figure is greater than 20 µM.
In experiment [1], `COc1cc(OC)cc(-c2cc3c(cc2O)CC[C@@H]2[C@@H]3CC[C@]3(C)C(=O)CC[C@@H]23)c1` gave a concentration for half-maximal inhibition (IC50) of 16.4 µM.
As to `CC(C)c1cc2c(c(O)c1O)[C@@]1(C(=O)O)CCCC(C)(C)[C@@H]1CC2` [CARNOSIC ACID], in experiment [3], the IC50 stood at 12 µg/mL.
`CC(C)(C)c1ccc(-c2cc3c(c(-c4ccc(C(C)(C)C)cc4)c2O)CC[C@@H]2[C@@H]3CC[C@]3(C)C(=O)CC[C@@H]23)cc1` showed an IC50 in experiment [1] of 8.29 µM.
Still for that read-out and setting: as for `COc1cc(OC)cc(-c2c(O)ccc3c2CC[C@@H]2[C@@H]3CC[C@]3(C)C(=O)CC[C@@H]23)c1`, the figure is 59.7 µM.
Same read-out and setting: as for `C[C@]12CC[C@@H]3c4cc(-c5ccc(OC(F)(F)F)cc5)c(O)c(-c5ccc(OC(F)(F)F)cc5)c4CC[C@H]3[C@@H]1CCC2=O`, the figure is 1.21 µM.
Compound `C[C@]12CC[C@@H]3c4cc(-c5ccc(F)cc5)c(O)c(-c5ccc(F)cc5)c4CC[C@H]3[C@@H]1CCC2=O` returned an IC50 in experiment [1] of 0.82 µM.
Consider `C[C@]12CC[C@@H]3c4cc(-c5ccccc5)c(O)cc4CC[C@H]3[C@@H]1CCC2=O`, for which the inhibition in experiment [2] was 39%.
Consider `C[C@]12CC[C@@H]3c4cc(-c5ccccc5F)c(O)c(-c5ccccc5F)c4CC[C@H]3[C@@H]1CCC2=O`, for which the inhibition in experiment [2] came out at 43%.
Consider `CC(C)(C)c1ccc(-c2cc3c(cc2O)CC[C@@H]2[C@@H]3CC[C@]3(C)C(=O)CC[C@@H]23)cc1`, for which, in experiment [1], the IC50 was 5.66 µM.
